Reference: PMC6422671 (British Journal of Clinical Pharmacology, 2019)

Test: Clinical laboratory findings: chemistry; data mean (standard deviation)
Type: in vivo, healthy men
Description: Data are mean (standard deviation).

With `C[C@@H](N)c1cc(Cl)ccc1Cn1c(=S)[nH]c(=O)c2[nH]ccc21` [AZD4831] the ALP (45 mg fed, 24 h) was 0.993 (0.202) µkat L^–1, the ALT (45 mg fed, 24 h) was 0.324 (0.125) µkat L^–1 and the AST (45 mg fed, 24 h) was 0.281 (0.048) µkat L^–1. For the same compound, the Albumin (45 mg fed, 24 h) was 41.2 (3.8) g L^–1, the Bilirubin (45 mg fed, 24 h) was 9.7 (0.6) µmol L^–1 and the CRP (45 mg fed, 24 h) was 0.42 (0.20) mg L^–1. For the same compound, the Calcium (45 mg fed, 24 h) was 2.30 (0.10) mmol L^–1, the Creatinine (45 mg fed, 24 h) was 71.2 (11.4) µmol L^–1 and the GGT (45 mg fed, 24 h) was 0.310 (0.053) µkat L^–1. The Glucose (45 mg fed, 24 h) was 5.06 (0.38) mmol L^–1, the Phosphate (45 mg fed, 24 h) was 1.10 (0.08) mmol L^–1 and the Potassium (45 mg fed, 24 h) was 4.28 (0.26) mmol L^–1. The Sodium (45 mg fed, 24 h) was 139.6 (1.6) mmol L^–1, the Urea (45 mg fed, 24 h) was 4.04 (0.45) mmol L^–1 and the ALP (45 mg fed, 48 h) was 1.004 (0.205) µkat L^–1. For the same compound, the ALT (45 mg fed, 48 h) was 0.325 (0.119) µkat L^–1, the AST (45 mg fed, 48 h) was 0.296 (0.053) µkat L^–1 and the Albumin (45 mg fed, 48 h) was 42.1 (3.4) g L^–1. The Bilirubin (45 mg fed, 48 h) was 9.5 (1.3) µmol L^–1, the CRP (45 mg fed, 48 h) was 0.42 (0.22) mg L^–1 and the Calcium (45 mg fed, 48 h) was 2.33 (0.07) mmol L^–1. The Creatinine (45 mg fed, 48 h) was 70.9 (9.3) µmol L^–1, the GGT (45 mg fed, 48 h) was 0.303 (0.051) µkat L^–1 and the Glucose (45 mg fed, 48 h) was 5.27 (0.13) mmol L^–1. For the same compound, the Phosphate (45 mg fed, 48 h) was 1.09 (0.05) mmol L^–1, the Potassium (45 mg fed, 48 h) was 4.27 (0.05) mmol L^–1 and the Sodium (45 mg fed, 48 h) was 140.1 (1.4) mmol L^–1. For the same compound, the Urea (45 mg fed, 48 h) was 4.19 (0.41) mmol L^–1, the ALP (45 mg fed, follow up) was 1.103 (0.265) µkat L^–1 and the ALT (45 mg fed, follow up) was 0.364 (0.151) µkat L^–1. The AST (45 mg fed, follow up) was 0.358 (0.049) µkat L^–1, the Albumin (45 mg fed, follow up) was 44.1 (3.2) g L^–1 and the Bilirubin (45 mg fed, follow up) was 9.6 (2.3) µmol L^–1. The CRP (45 mg fed, follow up) was 2.35 (3.10) mg L^–1, the Calcium (45 mg fed, follow up) was 2.34 (0.08) mmol L^–1 and the Creatinine (45 mg fed, follow up) was 74.6 (5.0) µmol L^–1. The GFR (45 mg fed, follow up) was 109 (15) mL min^–1 1.73m^–2, the GGT (45 mg fed, follow up) was 0.316 (0.087) µkat L^–1 and the Glucose (45 mg fed, follow up) was 5.18 (0.25) mmol L^–1. For the same compound, the Phosphate (45 mg fed, follow up) was 1.08 (0.11) mmol L^–1, the Potassium (45 mg fed, follow up) was 4.34 (0.20) mmol L^–1 and the Sodium (45 mg fed, follow up) was 139.6 (0.6) mmol L^–1. The Urea (45 mg fed, follow up) was 4.18 (0.78) mmol L^–1, the ALP (135 mg fasted, 24 h) was 1.128 (0.226) µkat L^–1 and the ALT (135 mg fasted, 24 h) was 0.323 (0.137) µkat L^–1. For the same compound, the AST (135 mg fasted, 24 h) was 0.304 (0.076) µkat L^–1, the Albumin (135 mg fasted, 24 h) was 43.4 (2.4) g L^–1 and the Bilirubin (135 mg fasted, 24 h) was 12.2 (4.3) µmol L^–1. The CRP (135 mg fasted, 24 h) was 0.60 (0.30) mg L^–1, the Calcium (135 mg fasted, 24 h) was 2.36 (0.08) mmol L^–1 and the Creatinine (135 mg fasted, 24 h) was 83.6 (8.7) µmol L^–1. The GGT (135 mg fasted, 24 h) was 0.318 (0.171) µkat L^–1, the Glucose (135 mg fasted, 24 h) was 4.74 (0.58) mmol L^–1 and the Phosphate (135 mg fasted, 24 h) was 1.06 (0.23) mmol L^–1. For the same compound, the Potassium (135 mg fasted, 24 h) was 4.11 (0.11) mmol L^–1, the Sodium (135 mg fasted, 24 h) was 139.8 (0.7) mmol L^–1 and the Urea (135 mg fasted, 24 h) was 4.50 (0.56) mmol L^–1. The ALP (135 mg fasted, 48 h) was 1.175 (0.250) µkat L^–1, the ALT (135 mg fasted, 48 h) was 0.325 (0.191) µkat L^–1 and the AST (135 mg fasted, 48 h) was 0.308 (0.101) µkat L^–1. The Albumin (135 mg fasted, 48 h) was 43.9 (2.8) g L^–1, the Bilirubin (135 mg fasted, 48 h) was 11.6 (3.5) µmol L^–1 and the CRP (135 mg fasted, 48 h) was 0.50 (0.26) mg L^–1. For the same compound, the Calcium (135 mg fasted, 48 h) was 2.37 (0.07) mmol L^–1, the Creatinine (135 mg fasted, 48 h) was 81.0 (9.1) µmol L^–1 and the GGT (135 mg fasted, 48 h) was 0.325 (0.161) µkat L^–1. The Glucose (135 mg fasted, 48 h) was 4.75 (0.37) mmol L^–1, the Phosphate (135 mg fasted, 48 h) was 1.01 (0.19) mmol L^–1 and the Potassium (135 mg fasted, 48 h) was 4.06 (0.17) mmol L^–1. The Sodium (135 mg fasted, 48 h) was 140.3 (1.4) mmol L^–1, the Urea (135 mg fasted, 48 h) was 4.24 (0.74) mmol L^–1 and the ALP (135 mg fasted, follow up) was 1.239 (0.208) µkat L^–1. The ALT (135 mg fasted, follow up) was 0.299 (0.129) µkat L^–1, the AST (135 mg fasted, follow up) was 0.332 (0.064) µkat L^–1 and the Albumin (135 mg fasted, follow up) was 46.0 (2.6) g L^–1. For the same compound, the Bilirubin (135 mg fasted, follow up) was 13.1 (5.1) µmol L^–1, the CRP (135 mg fasted, follow up) was 8.94 (12.69) mg L^–1 and the Calcium (135 mg fasted, follow up) was 2.36 (0.11) mmol L^–1. The Creatinine (135 mg fasted, follow up) was 85.1 (12.7) µmol L^–1, the GFR (135 mg fasted, follow up) was 104 (22) mL min^–1 1.73m^–2 and the GGT (135 mg fasted, follow up) was 0.306 (0.143) µkat L^–1. For the same compound, the Glucose (135 mg fasted, follow up) was 4.71 (0.54) mmol L^–1, the Phosphate (135 mg fasted, follow up) was 1.00 (0.21) mmol L^–1 and the Potassium (135 mg fasted, follow up) was 4.07 (0.20) mmol L^–1. For the same compound, the Sodium (135 mg fasted, follow up) was 140.2 (2.1) mmol L^–1, the Urea (135 mg fasted, follow up) was 4.15 (1.35) mmol L^–1 and the ALP (405 mg fasted, 24 h) was 0.958 (0.139) µkat L^–1. For the same compound, the ALT (405 mg fasted, 24 h) was 0.338 (0.119) µkat L^–1, the AST (405 mg fasted, 24 h) was 0.363 (0.077) µkat L^–1 and the Albumin (405 mg fasted, 24 h) was 43.7 (2.3) g L^–1. For the same compound, the Bilirubin (405 mg fasted, 24 h) was 14.9 (2.3) µmol L^–1, the CRP (405 mg fasted, 24 h) was 1.17 (1.28) mg L^–1 and the Calcium (405 mg fasted, 24 h) was 2.39 (0.06) mmol L^–1. For the same compound, the Creatinine (405 mg fasted, 24 h) was 86.2 (14.7) µmol L^–1, the GGT (405 mg fasted, 24 h) was 0.298 (0.146) µkat L^–1 and the Glucose (405 mg fasted, 24 h) was 4.77 (0.30) mmol L^–1. For the same compound, the Phosphate (405 mg fasted, 24 h) was 1.07 (0.11) mmol L^–1, the Potassium (405 mg fasted, 24 h) was 4.42 (0.31) mmol L^–1 and the Sodium (405 mg fasted, 24 h) was 139.2 (1.0) mmol L^–1. The Urea (405 mg fasted, 24 h) was 4.55 (1.01) mmol L^–1, the ALP (405 mg fasted, 48 h) was 0.947 (0.186) µkat L^–1 and the ALT (405 mg fasted, 48 h) was 0.351 (0.097) µkat L^–1. For the same compound, the AST (405 mg fasted, 48 h) was 0.366 (0.075) µkat L^–1, the Albumin (405 mg fasted, 48 h) was 44.2 (2.7) g L^–1 and the Bilirubin (405 mg fasted, 48 h) was 13.4 (2.1) µmol L^–1. The CRP (405 mg fasted, 48 h) was 1.19 (1.17) mg L^–1, the Calcium (405 mg fasted, 48 h) was 2.40 (0.06) mmol L^–1 and the Creatinine (405 mg fasted, 48 h) was 81.1 (13.0) µmol L^–1. The GGT (405 mg fasted, 48 h) was 0.290 (0.133) µkat L^–1, the Glucose (405 mg fasted, 48 h) was 4.88 (0.35) mmol L^–1 and the Phosphate (405 mg fasted, 48 h) was 1.06 (0.15) mmol L^–1. The Potassium (405 mg fasted, 48 h) was 4.33 (0.33) mmol L^–1, the Sodium (405 mg fasted, 48 h) was 139.6 (1.0) mmol L^–1 and the Urea (405 mg fasted, 48 h) was 4.68 (1.07) mmol L^–1. The ALP (405 mg fasted, follow up) was 1.037 (0.190) µkat L^–1, the ALT (405 mg fasted, follow up) was 0.346 (0.071) µkat L^–1 and the AST (405 mg fasted, follow up) was 0.398 (0.062) µkat L^–1. The Albumin (405 mg fasted, follow up) was 46.6 (2.7) g L^–1, the Bilirubin (405 mg fasted, follow up) was 13.2 (3.1) µmol L^–1 and the CRP (405 mg fasted, follow up) was 1.17 (0.86) mg L^–1. The Calcium (405 mg fasted, follow up) was 2.43 (0.10) mmol L^–1, the Creatinine (405 mg fasted, follow up) was 81.1 (12.2) µmol L^–1 and the GFR (405 mg fasted, follow up) was 104 (12) mL min^–1 1.73m^–2. The GGT (405 mg fasted, follow up) was 0.298 (0.137) µkat L^–1, the Glucose (405 mg fasted, follow up) was 4.63 (0.39) mmol L^–1 and the Phosphate (405 mg fasted, follow up) was 1.12 (0.17) mmol L^–1. For the same compound, the Potassium (405 mg fasted, follow up) was 4.39 (0.18) mmol L^–1, the Sodium (405 mg fasted, follow up) was 141.5 (2.6) mmol L^–1 and the Urea (405 mg fasted, follow up) was 3.87 (0.96) mmol L^–1. The “changes in clinical chemistry, haematology or urinary parameters” value (except serum uric acid at 135 mg or 405 mg) was “no systemic or dose‐related changes”.
